From patent publication US6939887B2, “Benzimidazolidinone derivatives” (Sumitomo Pharmaceuticals Co., Ltd., priority 2001, dated 2005) come the findings set out here.

Structures are written as SMILES. Where a name gives a salt, the structure may show the parent alone.

In the assay the test system is pituitary cells (growth hormone release). The experiment in a line: GH release promoting activity in cultured rat pituitary cells (GH level of supernatant by RIA). The assay is classed as cell-based, rat (Wistar/ST). Particulars: compound concentration 10000 nM, 15 min at 37° C. As to the method: Benzimidazolidinone derivatives of the present invention were evaluated for their growth hormone (GH) release promoting activity by reference to the method described in a literature (R. G. Smith et al., Science, 260, 1640 (1993)).
Pituitary glands removed from 7-week-old male Wistar/ST rats were washed three times with HBSS(−) and the tissue was minced into small pieces (ca. 1 mm square) using a pair of scissors. The tissues were transferred to a 15 ml round-bottom centrifuge tube and washed three times with HBSS(−) (10 ml). An enzyme solution (0.1 ml per one pituitary gland) was added and enzymatic digestion was started in a water bath at 37° C. During the process, the mixture was pipetted every 5 minutes and the treatment was continued for ca 20-30 min until the cells were dispersed. The resulting cell suspension was centrifuged at 1200 rpm for 2-3 min at room temperature and the supernatant was discarded. A culture medium (8 ml) was added. Similar procedure was repeated twice and the dispersed cells were washed. The cells were plated in a 96-well plate (1×10^4 cells/100 μl/well) and incubation was started at 37° C. under 5% CO2 atmosphere.
Three days after the start of the culture, the supernatant was discarded and an assay medium was added. The cells were incubated for 1.5 h and washed once with the assay medium. A test compound solution was added and the cells were reacted at 37° C. for 15 min in an incubator under 5% CO2. The supernatant was recovered and the GH level thereof was measured by RIA.
A sample (50 μl) diluted with RIA buffer (1% BSA, 0.1% NaN3 and 25 mM EDTA/PBS (pH 7.6)), [^125I]-labeled GH solution (50 μl, ca. 10,000 cpm), and rabbit antiserum (diluted 1,000-fold) against rat GH (50 μl, Biogenesis Co) were placed in each well of a 96-well plate for RIA (Coster Co) and the mixture was reacted for 3 days at 4° C. Cell membrane fractions containing protein A were added and the mixture was allowed to stand for 20 min and centrifuged. The supernatant was recovered and the precipitates were washed with the RIA buffer. The ^125I amount was measured. The GH level of the sample was calculated from the standard curve drawn using the standard GH.
The composition of the culture medium was DMEM containing 10% horse serum, 2.5% fetal bovine serum, 1% nonessential amino acids, 1% antibiotics. The composition of the assay medium was 25 mM HEPES/culture medium (pH 7.3). The test compound solution was prepared by adding a compound solution (1 μl), adjusted to 1000-fold concentration with DMSO, to an assay medium (1 ml). Collagenase (400 mg), DNase type I (1 mg), and BSA (1 g) were dissolved in a 25 mM HEPES buffer (pH 7.4, 40 ml) containing 0.8% NaCl, 0.037% KCl, 0.9% glucose, 1% streptomycin-penicillin and 0.7 mM Na2HPO4, and 1 mg/ml CaCl2 (226 μl) was added. The resulting solution was adjusted to a final volume of 50 ml by adding a HEPES buffer and sterilized by filtration through a 0.22 μm filter and used as the enzyme solution.
The GH release promoting activity of the compounds of Examples is shown in the following. For the activity, the ratio of GH level of the supernatant in the presence of the test compound (compound concentration 10000 nM) to GH level of supernatant in the absence of the compound (GH level of supernatant in the presence of the compound/GH level of supernatant in the absence of the compound).

Take `CCN(CC)CCn1c(=O)n(-c2ccc(Cl)cc2Cl)c2c(C(F)(F)F)cc(C(N)=O)cc21` [Example 8, 1-(2,4-dichlorophenyl)-3-[2-(diethylamino)ethyl]-2-oxo-7-(trifluoromethyl)-2,3-dihydro-1H-benzimidazole-5-carboxamide trifluoroacetate]: the “GH release promoting activity = (GH level of supernatant in the presence of the compound)/(GH level of supernatant in the absence of the compound)” value (“GH release promoting activity =” for short) amounted to 2.1. In the case of `CCN(CC)CCn1c(=O)n(Cc2ccccc2Cl)c2c(C(F)(F)F)cc(C(N)=O)cc21` [Example 5, 1-(2-chlorobenzyl)-3-[2-(diethylamino)ethyl]-2-oxo-7-(trifluoromethyl)-2,3-dihydro-1H-benzimidazole-5-carboxamide trifluoroacetate] it was 1.3; in that of `CCN(CC)CCn1c(=O)n(Cc2cccc(Cl)c2)c2c(C(F)(F)F)cc(C(N)=O)cc21` [Example 3, 1-(3-chlorobenzyl)-3-[2-(diethylamino)ethyl]-2-oxo-7-(trifluoromethyl)-2,3-dihydro-1H-benzimidazole-5-carboxamide trifluoroacetate], 1.2. Consider `CCN(CC)CCn1c(=O)n(-c2ccc(Cl)cc2)c2c(C(F)(F)F)cc(C(N)=O)cc21` [Example 7, 1-(4-chlorophenyl)-3-[2-(diethylamino)ethyl]-2-oxo-7-(trifluoromethyl)-2,3-dihydro-1H-benzimidazole-5-carboxamide trifluoroacetate], for which the “GH release promoting activity =” value came out at 3.0. Turning to `CCN(CC)CCn1c(=O)n(Cc2cccc(C(F)(F)F)c2)c2c(C(F)(F)F)cc(C(N)=O)cc21` [Example 9, 3-[2-(diethylamino)ethyl]-2-oxo-7-(trifluoromethyl)-1-[3-(trifluoromethyl)benzyl]-2,3-dihydro-1H-benzimidazole-5-carboxamide trifluoroacetate], the “GH release promoting activity =” value is 1.3.

As to `CCN(CC)CCn1c(=O)n(Cc2ccccc2C)c2c(C(F)(F)F)cc(C(N)=O)cc21` [Example 16, 3-[2-(diethylamino)ethyl]-1-(2-methylbenzyl)-2-oxo-7-(trifluoromethyl)-2,3-dihydro-1H-benzimidazole-5-carboxamide trifluoroacetate], the “GH release promoting activity =” value is listed as 1.0.
